Test results as given in US20110150833A1, “BENZOPYRANS AND ANALOGS AS RHO KINASE INHIBITORS” (The Scripps Research Institute, priority 2007, published 2011).

Test system: N2a cells
Experiment: In vitro cell-based neurite length (N2a) assay
Conditions: Mus musculus, neurite retraction induced by 5 uM LPA
Procedure: In Vitro Cell-Based Neurite Length (N2a) Assay
N2a cells are maintained in DMEM/FBS at 37 C and 5% CO2. For the experiment the cells were plated on a poly-D-lysine coated 96-well tissue culture plate. After attachment, cell differentiation was induced for 2 days by addition of 10 uM retinoic acid. Cells were treated for 1 h with a dilution of compounds in 0.3% DMSO final concentration before neurite retraction was induced by 5 uM LPA. Cells were stained for tubulin and nuclei and images were acquired on an INCell 1000 workstation. Images were analyzed using the developer toolbox and neurite length was quantitated.

- IC50: 27 nM
SMILES: COc1ccc2c(c1)CC(C(=O)Nc1ccc(-c3cn[nH]c3)cc1)CO2 (stereo not shown) [Example 92, 6-methoxy-chroman-3-carboxylic acid [4-(1H-pyrazol-4-yl)-phenyl]-amide]
